According to PubChem BioAssay (NCI):
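In this assay, cells in 96-well plates receive the compound at five concentrations for 48 hours. Endpoints are linearly interpolated between the surrounding concentrations. GI50 is the concentration that inhibits growth by half. TGI denotes the concentration required for complete inhibition of growth.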

What was measured:
Experiment in all cases: growth of human tumour cells (NCI), 48 h
[1] = test system: OVCAR-8 ovarian
[2] = test system: A498 renal
[3] = test system: COLO 205 colon
[4] = test system: RXF 393 renal
[5] = test system: A549 NSCLC
[6] = test system: NCI-H522 lung
[7] = test system: MALME-3M melanoma
[8] = test system: NCI-H226 lung
[9] = test system: SK-MEL-2 melanoma
[10] = test system: CCRF-CEM leukemia

Structure (SMILES) | TGI [1] | TGI [2] | TGI [3] | TGI [4] | TGI [5] | TGI [6] | TGI [7] | TGI [8] | TGI [9] | TGI [10] | GI50 [1] | GI50 [2] | GI50 [3] | GI50 [4] | GI50 [5] | GI50 [6] | GI50 [7] | GI50 [8] | GI50 [9] | GI50 [10]
C=C=C(C(=O)OC)S(=O)c1ccccc1[N+](=O)[O-] (stereo not given) | > 100 µM | > 100 µM | > 100 µM | > 100 µM | > 100 µM | 75.9 µM | > 100 µM | > 100 µM | > 100 µM | 77 µM |  |  |  |  |  |  |  |  |  | 
O=C1CC[C@H](N2C(=O)c3cccc4c(Cc5ccc(CN6CCOCC6)cc5)ccc2c34)C(=O)N1 | > 100 µM | > 100 µM | > 100 µM | > 100 µM | > 100 µM | > 100 µM | > 100 µM | > 100 µM | > 100 µM | > 100 µM | 56.6 µM | > 100 µM | 45.8 µM | 2.45 µM | 52.6 µM | 12.3 µM | 30 µM | 11.7 µM | > 100 µM | 55.9 µM
C=C(C)[C@@H]1CC[C@]2(COCCC#N)CC[C@]3(C)[C@H](CC[C@@H]4[C@@](C)(CCCNCCC#N)[C@H](C(=C)C)CC[C@]43C)[C@@H]12 | 31.8 µM | > 50 µM | > 50 µM | 14.5 µM | > 50 µM | 23.4 µM | 16.2 µM | 18.5 µM | 25.4 µM | 38.5 µM | 12.1 µM | > 50 µM | 14.6 µM | 7.44 µM | 34.4 µM | 8.55 µM | 8.42 µM | 8.88 µM | 10.7 µM | 10.8 µM
COC1OC(CO)C(O)C(OC(C)=O)C1NC(=O)N(CCCl)N=O (stereo not given) | > 100 µM | > 100 µM | > 100 µM | > 100 µM | > 100 µM | > 100 µM | > 100 µM | > 100 µM | 8.75 µM | > 100 µM |  |  |  |  |  |  |  |  |  | 
COC(=O)C(=O)C(C(=O)C(=O)Nc1cccc(C(C)=O)c1)c1nc2ccc([N+](=O)[O-])cc2[nH]c1=O (stereo not given) | > 100 µM | > 100 µM | > 100 µM | > 100 µM | > 100 µM | > 100 µM | > 100 µM | > 100 µM | > 100 µM | > 100 µM |  |  |  |  |  |  |  |  |  | 
NC1=CC(=O)c2cccnc2C1=O | 4.2 µM | 23.3 µM | 11.7 µM | 3.2 µM | 15 µM | 2.17 µM | 3.11 µM | 27.7 µM | 3.14 µM | 4.88 µM | 1.66 µM | 10.1 µM | 3.33 µM | 1.67 µM | 3.84 µM | 0.533 µM | 1.7 µM | 7.61 µM | 1.63 µM | 1.19 µM
O=C(/C=C/c1ccco1)c1cc(F)c(Cl)cc1Cl | 68.3 µM | 39.2 µM | 38.4 µM | 37.7 µM | 70.7 µM | 39.5 µM | 38.7 µM | 47.2 µM | 34.6 µM | 47.5 µM | 24.5 µM | 18.7 µM | 18.6 µM | 19.1 µM | 22 µM | 18.4 µM | 16.5 µM | 19.9 µM | 18.1 µM | 18.8 µM
Nc1cc(F)ccc1CC(=O)O | > 100 µM | > 100 µM | > 100 µM | > 100 µM | > 100 µM | > 100 µM | > 100 µM | > 100 µM | > 100 µM | > 100 µM |  |  |  |  |  |  |  |  |  | 
COC1=CC(c2ccc[nH]2)=N/C1=C\c1[nH]c(C)c(CC(=O)OCc2ccccc2)c1CCC(=O)OCc1ccccc1 | 1.36 µM | 2.42 µM | 1.2 µM | 2.19 µM | 10.9 µM | 1.85 µM | 2.62 µM | 2.3 µM | 0.758 µM | 2.29 µM | 0.32 µM | 0.288 µM | 0.26 µM | 0.423 µM | 0.427 µM | 0.302 µM | 0.886 µM | 0.335 µM | 0.281 µM | 0.229 µM
N#Cc1c(NC(=O)NCc2ccccc2)sc2c1CCCC2 | > 100 µM | 1.13 µM | > 28.9 µM | 14.1 µM | > 100 µM | > 100 µM | > 100 µM | > 41.3 µM | > 100 µM | > 100 µM | 2.29 µM | 0.236 µM | 0.593 µM | 0.481 µM | 0.731 µM | 0.559 µM | 0.598 µM | 1.3 µM | 5.08 µM | 0.459 µM
